Source: patent US8440698B2, “3-(4-((1H-imidazol-1-yl)methyl)phenyl)-5-aryl-1,2,4-oxadiazole derivatives as sphingosine-1 phosphate receptors modulators” (Allergan, Inc., priority 2010, dated 2013)

Target: T1, human S1P1 receptor (Homo sapiens, UniProt P21453)
T1 construct: expressed in transfected cells; membranes used
Assay: GTP γ35S binding assay for S1P1 activity
Type: biochemical
Details: for Emax at 5 µM: intrinsic activity at 5 μM, read-out: % S1P1 STIMULATION @ 5 μM; for EC50: membranes of cells stably expressing S1P1, test concentrations 0.08 to 5,000 nM, read-out: S1P1 GTPγ^35S EC50
Protocol: Novel compounds were synthesized and tested for S1P1 activity using the GTP γ^35S binding assay. These compounds may be assessed for their ability to activate or block activation of the human S1P1 receptor in cells stably expressing the S1P1 receptor. GTP γ^35S binding was measured in the medium containing (mM) HEPES 25, pH 7.4, MgCl2 10, NaCl 100, dithitothreitol 0.5, digitonin 0.003%, 0.2 nM GTP γ^35S, and 5 μg membrane protein in a volume of 150 μl. Test compounds were included in the concentration range from 0.08 to 5,000 nM unless indicated otherwise. Membranes were incubated with 100 μM 5′-adenylylimmidodiphosphate for 30 min, and subsequently with 10 μM GDP for 10 min on ice. Drug solutions and membrane were mixed, and then reactions were initiated by adding GTP γ^35S and continued for 30 min at 25° C. Reaction mixtures were filtered over Whatman GF/B filters under vacuum, and washed three times with 3 mL of ice-cold buffer (HEPES 25, pH7.4, MgCl2 10 and NaCl 100). Filters were dried and mixed with scintillant, and counted for ^35S activity using a β-counter. Agonist-induced GTP γ^35S binding was obtained by subtracting that in the absence of agonist. Binding data were analyzed using a non-linear regression method. In case of antagonist assay, the reaction mixture contained 10 nM S1P in the presence of test antagonist at concentrations ranging from 0.08 to 5000 nM.

T1 sequence (P21453 whole entry): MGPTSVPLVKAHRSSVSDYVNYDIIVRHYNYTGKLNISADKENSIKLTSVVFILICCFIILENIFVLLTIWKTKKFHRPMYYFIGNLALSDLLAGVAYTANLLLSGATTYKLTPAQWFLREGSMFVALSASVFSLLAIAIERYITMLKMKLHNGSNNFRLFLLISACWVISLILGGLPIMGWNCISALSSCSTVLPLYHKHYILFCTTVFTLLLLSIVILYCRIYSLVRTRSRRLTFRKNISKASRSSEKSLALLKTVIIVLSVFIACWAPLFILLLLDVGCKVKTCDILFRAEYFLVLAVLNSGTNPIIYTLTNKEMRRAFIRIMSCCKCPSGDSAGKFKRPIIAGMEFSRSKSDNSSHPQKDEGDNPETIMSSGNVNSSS

Compound	Emax at 5 µM	EC50
CC(C)Oc1ccc(-c2nc(-c3ccc(Cn4ccnc4)cc3Cl)no2)cc1[N+](=O)[O-] [3-[2-chloro-4-(1H-imidazol-1-ylmethyl)phenyl]-5-(4-isopropoxy-3-nitrophenyl)-1,2,4-oxadiazole]	92.3%	8.79 nM
CC(C)Oc1ccc(-c2nc(-c3ccc(Cn4ccnc4)cc3Cl)no2)cc1C(F)(F)F [3-[2-chloro-4-(1H-imidazol-1-ylmethyl)phenyl]-5-[4-isopropoxy-3-(trifluoromethyl)phenyl]-1,2,4-oxadiazole]	79.6%	3.55 nM
Cc1cc(-c2nc(-c3ccc(Cn4ccnc4)cc3C(F)(F)F)no2)ccc1OC(C)C [3-[4-(1H-imidazol-1-ylmethyl)-2-(trifluoromethyl)phenyl]-5-(4-isopropoxy-3-methylphenyl)-1,2,4-oxadiazole]	7.4%	
CC(C)Oc1ccc(-c2nc(-c3ccc(Cn4ccnc4)cc3C(F)(F)F)no2)cc1[N+](=O)[O-] [3-[4-(1H-imidazol-1-ylmethyl)-2-(trifluoromethyl)phenyl]-5-(4-isopropoxy-3-nitrophenyl)-1,2,4-oxadiazole]	79.4%	6.37 nM
CC(C)Oc1ccc(-c2nc(-c3ccc(Cn4ccnc4)cc3C(F)(F)F)no2)cc1C(F)(F)F [3-[4-(1H-imidazol-1-ylmethyl)-2-(trifluoromethyl)phenyl]-5-[4-isopropoxy-3-(trifluoromethyl)phenyl]-1,2,4-oxadiazole]	80.9%	62.4 nM
CC(C)Oc1ccc(-c2nc(-c3ccc(Cn4ccnc4)cc3C(F)(F)F)no2)cc1Br [5-(3-Bromo-4-isopropoxy-phenyl)-3-(4-imidazol-1-ylmethyl-2-trifluoromethyl-phenyl)-[1,2,4]oxadiazole]	100%	102 nM
CC(C)COc1ccc(-c2nc(-c3ccc(Cn4ccnc4)cc3C(F)(F)F)no2)cc1Br [5-(3-bromo-4-isobutoxyphenyl)-3-[4-(1H-imidazol-1-ylmethyl)-2-(trifluoromethyl)phenyl]-1,2,4-oxadiazole]	98.3%	144 nM
CC(C)Oc1ccc(-c2nc(-c3ccc(Cn4ccnc4)cc3Cl)no2)cc1Br [5-(3-bromo-4-isopropoxyphenyl)-3-[2-chloro-4-(1H-imidazol-1-ylmethyl)phenyl]-1,2,4-oxadiazole]	102%	29.7 nM
CC(C)Oc1ccc(-c2nc(-c3ccc(Cn4ccnc4)cc3C(F)(F)F)no2)cc1C#N [5-[3-(4-Imidazol-1-ylmethyl-2-trifluoromethyl-phenyl)-[1,2,4]oxadiazol-5-yl]-2-isopropoxy-benzonitrile]	97.6%	5.22 nM
FC(F)(F)c1cc(Cn2ccnc2)ccc1-c1noc(-c2ccc(OC3CC3)c(Br)c2)n1 [5-[3-bromo-4-(cyclopropyloxy)phenyl]-3-[4-(1H-imidazol-1-ylmethyl)-2-(trifluoromethyl)phenyl]-1,2,4-oxadiazole]	89.6%	119 nM
CC(C)Oc1ccc(-c2nc(-c3ccc(Cn4ccnc4)cc3Cl)no2)cc1C#N [5-{3-[2-chloro-4-(1H-imidazol-1-ylmethyl)phenyl]-1,2,4-oxadiazol-5-yl}-2-isopropoxybenzonitrile]	94.9%	4.56 nM
CC1CCCCN1c1ccc(-c2nc(-c3ccc(Cn4ccnc4)cc3)no2)cc1C#N (stereo not shown) [5-{3-[4-(1H-imidazol-1-ylmethyl)phenyl]-1,2,4-oxadiazol-5-yl}-2-(2-methylpiperidin-1-yl)benzonitrile]	99.9%	130 nM
Brc1cc(-c2nc(-c3ccc(Cn4ccnc4)cc3)no2)ccc1OC1CC1 [Compound 1, 5-(3-Bromo-4-cyclopropoxy-phenyl)-3-(4-imidazol-1-ylmethyl-phenyl)-[1,2,4]oxadiazole]	99.9%	14.4 nM
Cc1cc(Cn2ccnc2)ccc1-c1noc(-c2ccc(OC3CC3)c(Br)c2)n1 [Compound 2, 5-(3-Bromo-4-cyclopropoxy-phenyl)-3-(4-imidazol-1-ylmethyl-2-methyl-phenyl)-[1,2,4]oxadiazole]	96%	32 nM
CC(C)Oc1ccc(-c2nc(-c3ccc(Cn4ccnc4)cc3)no2)cc1C(F)(F)F [Compound 3, 3-(4-Imidazol-1-ylmethyl-phenyl)-5-(4-isopropoxy-3-trifluoromethyl-phenyl)-[1,2,4]oxadiazole]	95.6%	0.51 nM
CC(C)COc1ccc(-c2nc(-c3ccc(Cn4ccnc4)cc3)no2)cc1C(F)(F)F [Compound 4, 3-(4-Imidazol-1-ylmethyl-phenyl)-5-(4-isobutoxy-3-trifluoromethyl-phenyl)-[1,2,4]oxadiazole]	72.2%	998 nM

Compound	Emax at 5 µM	EC50
FC(F)(F)c1cc(-c2nc(-c3ccc(Cn4ccnc4)cc3)no2)ccc1OC1CCCCC1 [Compound 5, 5-(4-Cyclohexyloxy-3-trifluoromethyl-phenyl)-3-(4-imidazol-1-ylmethyl-phenyl)-[1,2,4]oxadiazole]	91.8%	149 nM
Cc1cc(Cn2ccnc2)ccc1-c1noc(-c2ccc(OC(C)C)c(C(F)(F)F)c2)n1 [Compound 6, 3-(4-Imidazol-1-ylmethyl-2-methyl-phenyl)-5-(4-isopropoxy-3-trifluoromethyl-phenyl)-[1,2,4]oxadiazole]	95.5%	3.38 nM
CC(C)Oc1ccc(-c2nc(-c3ccc(Cn4ccnc4)cc3)no2)cc1[N+](=O)[O-] [Compound 7, 3-(4-Imidazol-1-ylmethyl-phenyl)-5-(4-isopropoxy-3-nitro-phenyl)-[1,2,4]oxadiazole]	118%	3.24 nM
CC(C)COc1ccc(-c2nc(-c3ccc(Cn4ccnc4)cc3)no2)cc1C#N [Compound 8, 5-[3-(4-Imidazol-1-ylmethyl-phenyl)-[1,2,4]oxadiazol-5-yl]-2-isobutoxy-benzonitrile]	75.9%	62 nM
CC(C)COc1ccc(-c2nc(-c3ccc(Cn4ccnc4)cc3)no2)cc1Br [Compound 9, 5-(3-Bromo-4-isobutoxy-phenyl)-3-(4-imidazol-1-ylmethyl-phenyl)-[1,2,4]oxadiazole]	86.2%	28.6 nM
CC(C)Cc1ccc(-c2nc(-c3ccc(Cn4ccnc4)cc3)no2)cc1 [Compound 10, 3-(4-Imidazol-1-ylmethyl-phenyl)-5-(4-isobutyl-phenyl)-[1,2,4]oxadiazole]	79.8%	543 nM
CC(C)Oc1ccc(-c2nc(-c3ccc(Cn4ccnc4)cc3)no2)cc1 [Compound 11, 3-(4-Imidazol-1-ylmethyl-phenyl)-5-(4-isopropoxy-phenyl)-[1,2,4]oxadiazole]	92.8%	453 nM
CC(C)Oc1ccc(-c2nc(-c3ccc(Cn4ccnc4)cc3)no2)cc1C#N [Compound 12, 5-[3-(4-Imidazol-1-ylmethyl-phenyl)-[1,2,4]oxadiazol-5-yl]-2-isopropoxy-benzonitrile]	94.6%	3.31 nM
Cc1cc(Cn2ccnc2)ccc1-c1noc(-c2ccc(OC(C)C)c(C#N)c2)n1 [Compound 13, 5-[3-(4-Imidazol-1-ylmethyl-2-methyl-phenyl)-[1,2,4]oxadiazol-5-yl]-2-isopropoxy-benzonitrile]	96.4%	4.76 nM
CC(C)Oc1ccc(-c2nc(-c3ccc(Cn4ccnc4)cc3)no2)cc1Br [Compound 14, 5-(3-Bromo-4-isopropoxy-phenyl)-3-(4-imidazol-1-ylmethyl-phenyl)-[1,2,4]oxadiazole]	93.9%	0.92 nM
Cc1cc(Cn2ccnc2)ccc1-c1noc(-c2ccc(OC(C)C)c(Br)c2)n1 [Compound 15, 5-(3-Bromo-4-isopropoxy-phenyl)-3-(4-imidazol-1-ylmethyl-2-methyl-phenyl)-[1,2,4]oxadiazole]	109%	19.6 nM
CC(C)Oc1ccc(-c2nc(-c3ccc(Cn4ccnc4)cc3)no2)cc1Cl [Compound 16, 5-(3-Chloro-4-isopropoxy-phenyl)-3-(4-imidazol-1-ylmethyl-phenyl)-[1,2,4]oxadiazole]	99.8%	2.79 nM
Cc1cc(-c2nc(-c3ccc(Cn4ccnc4)cc3)no2)ccc1OC(C)C [Compound 17, 3-(4-Imidazol-1-ylmethyl-phenyl)-5-(4-isopropoxy-3-methyl-phenyl)-[1,2,4]oxadiazole]	133%	10.3 nM
Cc1cc(-c2nc(-c3ccc(Cn4ccnc4)cc3C)no2)ccc1OC(C)C [Compound 18, 3-(4-Imidazol-1-ylmethyl-2-methyl-phenyl)-5-(4-isopropoxy-3-methyl-phenyl)-[1,2,4]oxadiazole]	94.6%	19.8 nM
Cc1cc(Cn2ccnc2)ccc1-c1noc(-c2ccc(OC(C)C)c([N+](=O)[O-])c2)n1 [Compound 19, 3-(4-Imidazol-1-ylmethyl-2-methyl-phenyl)-5-(4-isopropoxy-3-nitro-phenyl)-[1,2,4]oxadiazole]	102%	8.98 nM
